Test results from publication PMC4389257, “Structural basis for full-spectrum inhibition of translational functions on a tRNA synthetase” (Nature Communications, 2015).
pKi: −log10 of the molar value.

Target: T1, human threonyl-tRNA synthetase (ThrRS) (Homo sapiens, UniProt P26639)
T1 construct: gene TARS1
T1 sequence (P26639 322-723): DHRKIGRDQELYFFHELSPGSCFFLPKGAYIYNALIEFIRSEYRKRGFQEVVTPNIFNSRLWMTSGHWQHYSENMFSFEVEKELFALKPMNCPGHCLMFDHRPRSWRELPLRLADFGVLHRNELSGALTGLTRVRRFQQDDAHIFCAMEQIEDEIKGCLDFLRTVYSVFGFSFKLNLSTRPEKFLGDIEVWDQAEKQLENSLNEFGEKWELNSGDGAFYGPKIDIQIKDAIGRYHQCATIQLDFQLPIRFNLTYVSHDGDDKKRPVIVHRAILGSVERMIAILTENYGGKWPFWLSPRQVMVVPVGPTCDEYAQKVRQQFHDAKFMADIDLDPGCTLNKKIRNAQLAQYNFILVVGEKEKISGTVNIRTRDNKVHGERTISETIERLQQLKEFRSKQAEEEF
Experiment: X-ray co-crystal structure ([…] Å); aminoacylation assay Ki
Format: biochemical

C[C@@H]1C[C@H](C)C[C@H](C)[C@@H](O)CC(=O)O[C@H]([C@@H]2CCC[C@H]2C(=O)O)C/C=C/C=C(/C#N)[C@H](O)[C@@H](C)C1 [BN, Borrelidin]
pKi: ~8.15
